Laboratory results reported in patent US12178842B2, “PCSK9 antagonist compounds” (MERCK SHARP & DOHME LLC, priority 2019, dated 2024).

What was measured:
Assay type in all cases: binding
PCSK9 [1] = biological target: T1, PCSK9 (Homo sapiens, UniProt Q8NBP7); experiment: PCSK9 Alexa FRET Plus TR-FRET assay
T1 construct: biotin (biotinylated); purchased
Method: A separate solution containing 1920 nM of the AlexaFluor tagged cyclic peptide is made in the same buffer system. […] The reaction is incubated at room temperature for at least two hours prior to fluorescence measurements using an Envision Multilabel Reader. IC50 values are determined by fitting data to a sigmoidal dose-response curve using nonlinear regression. Ki is then calculated from the Ic50 and the KD of AF cyclic peptide. Counts (B-counts) of the europium-labeled PCSK9 are followed to observe if compounds are adversely affecting PCSK9. A fall off of the B-counts is likely indicates a false positive of inhibition. Data from this procedure is reported as “P=‘numerical value’ (nanomolar)”

PCSK9 [2] = biological target: T1, PCSK9; experiment: PCSK9 Alexa FRET Ultra TR-FRET assay
Method: A separate solution containing 1920 nM of the AlexaFluor tagged cyclic peptide is made in the same buffer system. […] The reaction is incubated at room temperature for at least two hours prior to fluorescence measurements using an Envision Multilabel Reader. IC50 values are determined by fitting data to a sigmoidal dose-response curve using nonlinear regression. Ki is then calculated from the Ic50 and the KD of AF cyclic peptide. Counts (B-counts) of the europium-labeled PCSK9 are followed to observe if compounds are adversely affecting PCSK9. A fall off of the B-counts is likely indicates a false positive of inhibition. Data from this procedure is reported as “Ki Ultra=‘numerical value’ (data reported is nanomolar)”

PCSK9 [3] = biological target: T1, PCSK9; experiment: PCSK9 Alexa FRET Standard TR-FRET assay; conditions: Ki calculated from IC50 and KD of AF cyclic peptide Reagent A; 0.5 nM PCSK9, 20 nM AF cyclic peptide; read-out: Alexa FRET Stdt TR-FRET
Method: A solution containing 1 nM biotinylated PCSK9+2.5 nM Lance Streptavidin Europium (Strep-Eu) is made in 50 mM HEPES pH 7.4, 0.15 M NaCl, 5 mM CaCl2, 0.01% BSA, and 0.01% Surfactant P20. A separate solution containing 40 nM of the AlexaFluor tagged cyclic peptide is made in the same buffer system. An Echo is used to transfer 0.750 ul of compound to an assay plate followed by the addition of 15 ul of PCSK9+Stept-Eu and 15 ul of AF peptide. The final assay volume is 30.750 ul containing 0.5 nM PCSK9, 1.25 nM Strep-Eu, and 20 nM AF cyclic peptide. The reaction is incubated at room temperature for at least two hours prior to fluorescence measurements using an Envision Multilabel Reader. IC50 values are determined by fitting data to a sigmoidal dose-response curve using nonlinear regression. Ki is then calculated from the Ic50 and the KD of AF cyclic peptide. Counts (B-counts) of the europium-labeled PCSK9 are followed to observe if compounds are adversely PCSK9. A fall off of the B-counts likely indicates a false positive of inhibition. Data from this procedure is reported as “A=‘numerical value’ (nanomolar)”

[4] = Ki calculated from IC50 and KD of AF cyclic peptide Reagent B, 0.5 nM PCSK9, 960 nM AF cyclic peptide, read-out: Alexa FRET Plus TR-FRET
[5] = Ki Ultra, calculated from IC50 and KD of AF cyclic peptide, 0.5 nM PCSK9, 960 nM AF cyclic peptide, read-out: Alexa FRET Ultra TR-FRET

T1 sequence (Q8NBP7 153-692): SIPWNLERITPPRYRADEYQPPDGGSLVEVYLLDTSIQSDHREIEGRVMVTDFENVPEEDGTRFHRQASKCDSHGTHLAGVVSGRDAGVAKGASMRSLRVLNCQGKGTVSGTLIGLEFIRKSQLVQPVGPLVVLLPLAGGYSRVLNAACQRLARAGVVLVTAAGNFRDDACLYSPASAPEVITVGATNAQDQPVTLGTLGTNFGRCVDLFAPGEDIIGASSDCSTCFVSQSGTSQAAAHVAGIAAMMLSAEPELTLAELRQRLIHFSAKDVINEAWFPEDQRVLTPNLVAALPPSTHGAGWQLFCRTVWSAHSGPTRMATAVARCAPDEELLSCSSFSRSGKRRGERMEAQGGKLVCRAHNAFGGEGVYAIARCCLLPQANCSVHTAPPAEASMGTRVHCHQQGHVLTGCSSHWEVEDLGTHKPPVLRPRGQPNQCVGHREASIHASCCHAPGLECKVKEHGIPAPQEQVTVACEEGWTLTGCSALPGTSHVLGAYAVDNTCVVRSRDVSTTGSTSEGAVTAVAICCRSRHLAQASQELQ

Row | Ki (PCSK9 [1]; [4]) | Ki (PCSK9 [2]; [5]) | Ki (PCSK9 [3]) | SMILES | Ki (PCSK9 [1]) | Ki (PCSK9 [2])
1 | 7 pM | 6 pM | < 1260 pM | COc1ccc(C[C@@H]2NC(=O)[C@H]([C@@H](C)O)NC(=O)[C@@H]3[C@@H]4CCN3C(=O)[C@@H]3Cc5cn(c6ccc(F)cc56)CCCCCCN(Cc5ccc(cc5)CCNC(=O)[C@]5(C)CCCN5C2=O)C(=O)CCC(=O)N[C@@H](C)C(=O)N[C@H](CNC(=O)CCOCCOCC[N+](C)(C)CCNC(=O)CCOCCOCC[N+](C)(C)CCNC(=O)COCCOCCNC(=O)COCCOCCNC(=O)CC[C@H](NC(=O)CC[C@H](NC(=O)CCCCCCCCCCCCCCC(=O)O)C(=O)O)C(=O)O)C(=O)N[C@@H](Cc2cccc(c2)CNC(=O)CO4)C(=O)N3)cc1 [Ex-11] |  | 
2 | 15 pM | 4 pM | < 1260 pM | COc1ccc(C[C@@H]2NC(=O)[C@H]([C@@H](C)O)NC(=O)[C@@H]3[C@@H]4CCN3C(=O)[C@@H]3Cc5cn(c6ccc(F)cc56)CCCCCCN(Cc5ccc(cc5)CCNC(=O)[C@]5(C)CCCN5C2=O)C(=O)CCC(=O)N[C@@H](C)C(=O)N[C@H](CNC(=O)CCOCCOCC[N+](C)(C)CCNC(=O)COCCOCCNC(=O)COCCOCCNC(=O)CC[C@H](NC(=O)CCCCCCCCCCCCCCCCC(=O)O)C(=O)O)C(=O)N[C@@H](Cc2cccc(c2)CNC(=O)CO4)C(=O)N3)cc1 [Ex-22] |  | 
3 | < 6 pM | 3 pM | < 1260 pM | COc1ccc(C[C@@H]2NC(=O)[C@H]([C@@H](C)O)NC(=O)[C@@H]3[C@@H]4CCN3C(=O)[C@@H]3Cc5cn(c6ccc(F)cc56)CCCCCCN(Cc5ccc(cc5)CCNC(=O)[C@]5(C)CCCN5C2=O)C(=O)CCC(=O)N[C@@H](C)C(=O)N[C@H](CNC(=O)COCCOCC[N+](C)(C)CCOCCNC(=O)COCCOCCNC(=O)COCCOCCNC(=O)CC[C@H](NC(=O)CC[C@H](NC(=O)CCCCCCCCCCCCCCCCC(=O)O)C(=O)O)C(=O)O)C(=O)N[C@@H](Cc2cccc(c2)CNC(=O)CO4)C(=O)N3)cc1 [Ex-13] |  | 
4 | < 6 pM | 2 pM | < 1260 pM | COc1ccc(C[C@@H]2NC(=O)[C@H]([C@@H](C)O)NC(=O)C3C4CCN3C(=O)[C@@H]3Cc5cn(c6ccc(F)cc56)CCCCCCN(Cc5ccc(cc5)CCNC(=O)[C@]5(C)CCCN5C2=O)C(=O)CCC(=O)N[C@@H](C)C(=O)N[C@H](CNC(=O)CCOCCOCC[N+](C)(C)CCNC(=O)CCOCCOCC[N+](C)(C)CCNC(=O)COCCOCCNC(=O)COCCOCCNC(=O)CCCCCCCCCCCCCCC(=O)O)C(=O)N[C@@H](Cc2cccc(c2)CNC(=O)CO4)C(=O)N3)cc1 [compound 43] |  | 
5 | 49 pM | 131 pM | < 1260 pM | COc1ccc(C[C@@H]2NC(=O)[C@H]([C@@H](C)O)NC(=O)[C@@H]3[C@@H]4CCN3C(=O)[C@@H]3Cc5cn(c6ccc(F)cc56)CCCCCCN(Cc5ccc(cc5)CCNC(=O)[C@]5(C)CCCN5C2=O)C(=O)CCC(=O)N[C@@H](CNC(=O)COCCOCCNC(=O)CC[C@H](NC(=O)CCOCCOCC[N+](C)(C)CCNC(=O)COCCOCCNC(=O)COCCOCCNC(=O)CC[C@H](NC(=O)CCCCCCCCCCCCCCCCC(=O)O)C(=O)O)C(=O)O)C(=O)N[C@H](C)C(=O)N[C@@H](Cc2cccc(c2)CNC(=O)CO4)C(=O)N3)cc1 [Ex-61] |  | 

Further lines, the compound ahead of its results:

Row | SMILES | Ki (PCSK9 [1]; [4]) | Ki (PCSK9 [2]; [5]) | Ki (PCSK9 [3]) | Ki (PCSK9 [1]) | Ki (PCSK9 [2])
6 | COc1ccc(C[C@@H]2NC(=O)[C@H]([C@@H](C)O)NC(=O)[C@@H]3[C@@H]4CCN3C(=O)[C@@H]3Cc5cn(c6ccc(F)cc56)CCCCCCN(Cc5ccc(cc5)CCNC(=O)[C@]5(C)CCCN5C2=O)C(=O)CCC(=O)N[C@@H](C)C(=O)N[C@H](CNC(=O)COCCOCCNC(=O)COCCOCCNC(=O)CC[C@H](NC(=O)CC[C@H](NC(=O)CCOCCOCC[N+](C)(C)CCNC(=O)CCCCCCCCCCCCCCCCC(=O)O)C(=O)O)C(=O)O)C(=O)N[C@@H](Cc2cccc(c2)CNC(=O)CO4)C(=O)N3)cc1 [Ex-9] |  |  | < 1260 pM | < 6 pM | 7 pM
7 | COc1ccc(C[C@@H]2NC(=O)[C@H]([C@@H](C)O)NC(=O)[C@@H]3[C@@H]4CCN3C(=O)[C@@H]3Cc5cn(c6ccc(F)cc56)CCCCCCN(Cc5ccc(cc5)CCNC(=O)[C@]5(C)CCCN5C2=O)C(=O)CCC(=O)N[C@@H](C)C(=O)N[C@H](CNC(=O)COCCOCCNC(=O)COCCOCCNC(=O)CCOCCOCC[N+](C)(C)CCNC(=O)CCCCCCCCCCCCCCC(=O)O)C(=O)N[C@@H](Cc2cccc(c2)CNC(=O)CO4)C(=O)N3)cc1 [Ex-39] | < 6 pM | 3 pM | < 1260 pM |  | 
8 | CCCCCC/C=C\CCCCCCCC(=O)N[C@@H](CCC(=O)NCCOCCOCC(=O)NCCOCCOCC(=O)NCC[N+](C)(C)CCCCCC(=O)NC[C@H]1NC(=O)[C@H](C)NC(=O)CCC(=O)N2CCCCCCn3cc(c4cc(F)ccc43)C[C@@H]3NC(=O)[C@H](Cc4cccc(c4)CNC(=O)CO[C@H]4CCN(C3=O)[C@@H]4C(=O)N[C@@H]([C@@H](C)O)C(=O)N[C@@H](Cc3ccc(OC)cc3)C(=O)N3CCC[C@@]3(C)C(=O)NCCc3ccc(cc3)C2)NC1=O)C(=O)O [Ex-21] | 10 pM | 1 pM | < 1260 pM |  | 
9 | COc1ccc(C[C@@H]2NC(=O)[C@H]([C@@H](C)O)NC(=O)[C@@H]3[C@@H]4CCN3C(=O)[C@@H]3Cc5cn(c6ccc(F)cc56)CCCCCCN(Cc5ccc(cc5)CCNC(=O)[C@]5(C)CCCN5C2=O)C(=O)CCC(=O)N[C@@H](C)C(=O)N[C@H](CNC(=O)CCOCCOCC[N+](C)(C)CCNC(=O)COCCOCCNC(=O)COCCOCCNC(=O)CC[C@H](NC(=O)CC[C@H](NC(=O)CCCCCCCCCCCCCCCCC(=O)O)C(=O)O)C(=O)O)C(=O)N[C@@H](Cc2cccc(c2)CNC(=O)CO4)C(=O)N3)cc1 [Ex-10] |  |  | < 1260 pM | 8 pM | 6 pM
10 | COc1ccc(C[C@@H]2NC(=O)[C@H]([C@@H](C)O)NC(=O)[C@@H]3[C@@H]4CCN3C(=O)[C@@H]3Cc5cn(c6ccc(F)cc56)CCCCCCN(Cc5ccc(cc5)CCNC(=O)[C@]5(C)CCCN5C2=O)C(=O)CCC(=O)N[C@@H](C)C(=O)N[C@H](CNC(=O)CCCCC[N+](C)(C)CCNC(=O)COCCOCCNC(=O)CCCCCCCCCCCCCCCCC(=O)O)C(=O)N[C@@H](Cc2cccc(c2)CNC(=O)CO4)C(=O)N3)cc1 [Example 1] |  |  | < 1260 pM | < 6 pM | 7 pM
11 | COc1ccc(C[C@@H]2NC(=O)[C@H]([C@@H](C)O)NC(=O)[C@@H]3[C@@H]4CCN3C(=O)[C@@H]3Cc5cn(c6ccc(F)cc56)CCCCCCN(Cc5ccc(cc5)CCNC(=O)[C@]5(C)CCCN5C2=O)C(=O)CCC(=O)N[C@@H](C)C(=O)N[C@H](CNC(=O)COCCOCCNC(=O)COCCOCCNC(=O)CC[C@H](NC(=O)CCCCCCCCCCCCCCCCC(=O)O)C(=O)O)C(=O)N[C@@H](Cc2cccc(c2)CNC(=O)CO4)C(=O)N3)cc1 [Ex-18] | 23 pM | 21 pM | < 1260 pM |  | 
12 | COc1ccc(C[C@@H]2NC(=O)[C@H]([C@@H](C)O)NC(=O)[C@@H]3[C@@H]4CCN3C(=O)[C@@H]3Cc5cn(c6ccc(F)cc56)CCCCCCN(Cc5ccc(cc5)CCNC(=O)[C@]5(C)CCCN5C2=O)C(=O)CCC(=O)N[C@@H](C)C(=O)N[C@H](CNC(=O)CCOCCOCC[N+](C)(C)CCNC(=O)COCCOCCNC(=O)COCCOCCNC(=O)C[C@H](NC(=O)CCCCCCCCCCCCCCCCC(=O)O)C(=O)O)C(=O)N[C@@H](Cc2cccc(c2)CNC(=O)CO4)C(=O)N3)cc1 [Ex-15] |  |  | < 1260 pM | < 6 pM | 5 pM
